The values below come from patent US20250289814A1, “COMPOUNDS AS PARP1 INHIBITIORS” (NINGBO NEWBAY TECHNOLOGY DEVELOPMENT CO., LTD., priority 2022, published 2025).

Where two headings read alike, the source gives them in different places.

In general, IC50 refers to the midpoint of a concentration-inhibition curve. The term Papp A→B denotes the apparent permeability from the apical to the basolateral side of a cell layer. For orientation: Papp B→A means the apparent permeability from the basolateral to the apical side of a cell layer.

The target of data set [1] is Recombinant full length PARP1 (Homo sapiens (Human), UniProt P09874). Nature of the data set: FP assay PARP1 (fluorescence anisotropy probe displacement). Format: binding. To be noted: 20 nM PARP1, 8 nM fluorescent probe, 4 h, room temperature. On the procedure: (§1) FP experiments were carried out at room temperature using no-binding black 384-well microplates. Recombinant full length PARP1 and PARP2 proteins produced in house were diluted to 20 nM and 60 nM, respectively, with assay buffer (50 mM Tris pH 8, 0.001% Triton X100, 10 mM MgCl2, and 150 mM NaCl) and incubated for 4 h with an equivalent volume of the 8 nM fluorescent probe diluted with assay buffer. Fluorescence anisotropy of the probe when bound to the proteins was measured in the presence of test compounds or solvent control and the effect on anisotropy determined. Polarization values were read using an Envision plate reader using excitation and emission wavelengths of 590 and 630 nm, respectively. All FP values are expressed as mP units. Inhibition ratio was calculated using readout (mP) following the equation as below: […]
(§2) % inhibition values for different test compound concentrations were calculated and fitted to a four parameter logistic plot in order to determine the IC50 value using XLfit.

A further data set has as its system DLD1-BRCA2−/− cells. Nature of the data set: Cell proliferation assay in DLD1-BRCA2−/− cell lines (CellTiter-Glo, 7 days). It is filed as cell-based. The procedure: BRCA2 (−/−) cells cultured in RPMI 1640+10% FBS were harvested and diluted to a density of 1×10^4 cells/mL and 2×10^4 cells/mL, respectively. Cells (40 μL/well) were seeded into 384-well cell culture plates. Plates were covered and incubated at 37° C., 5% CO2 overnight prior to the addition of test compounds or vehicle. The plates were then incubated at 37° C., 5% CO2 for 7 days. On day 8, the plates were removed from incubator and equilibrated at room temperature for 15 minutes. CellTiter-Glo (40 μL, at 1:1 to culture medium) is added into each well and the plates were placed at room temperature for 30 min. Luminescence was measured using an Envision plate reader. The resultant data were analysed as follows; where LC is culture medium without cells:
% inhibition values for different test compound concentrations were calculated and fitted to a four parameter logistic plot in order to determine the IC50 value using XLfit
(Cellular ATP, detected with luciferase, serves as a proxy for viable cell number.)

Data set [2] concerns the target Recombinant full length PARP2 (Homo sapiens (Human), UniProt Q9UGN5). Kind of data set: FP assay PARP2 (fluorescence anisotropy probe displacement). Format: binding. To be noted: 60 nM PARP2, 8 nM fluorescent probe, 4 h, room temperature. On the procedure:
as §1, §2
For orientation: Polarisation of emitted light reports the rotation of a fluorescent probe.

A short description of data set [3]: Caco2 (A-B/B-A) permeability. Format: in vitro ADME. To be noted: human; for efflux ratio at 120 min, 5 μM: Caco-2, pH 7.4, PappB-A/PappA-B, read-out: Caco2 efflux ratio (ER); for Papp A→B at 120 min, 5 μM: Caco-2, pH 7.4, apical-to-basolateral, read-out: Caco2 A-B apparent permeability (Papp); for Papp A→B at 120 min, 5 μM / Papp B→A at 120 min, 5 μM: HBSS pH 7.4, 120 min, 37° C.; for Papp B→A at 120 min, 5 μM: Caco-2, pH 7.4, basolateral-to-apical, read-out: Caco2 B-A apparent permeability (Papp). The procedure:
The apical-to-basolateral (A-B) and basolateral-to-apical (B-A) transport of 5 μM test compounds in HBSS (10 mM HEPES, pH 7.4) was measured across Caco-2 cell monolayers (cells sourced from American Type Culture Collection, Manassas, Virgina). Duplicate incubations were performed at approximately 37° C. for 120 min, with functionality of the test system confirmed using 5 μM propranolol and digoxin as control compounds. Aliquots (50 μL) from both apical and basolateral wells were transferred into two fresh 96-well plates and quenched with acetonitrile solution containing analytical internal standards. Samples were vortexed mixed, centrifuged and a 100 μL aliquot of the resulting supernatant mixed with an equal volume of ultra-pure water prior to analysis by UPLC-MS/MS. The concentrations of test compound and control compounds in the incubation medium of donor and receiver compartments at the beginning and the end of the incubation period were used to calculate the apparent permeability (Papp) from A-B and B-A directions. The efflux ratio (ER) was expressed as PappB-A/PappA-B. The integrity of the cell monolayers after 2 hours incubation was confirmed using the marker reagent Lucifer yellow.
In general terms: Caco-2 cells form a polarised layer with tight junctions and transporters.

Chain of Recombinant full length PARP2 (Q9UGN5 whole entry): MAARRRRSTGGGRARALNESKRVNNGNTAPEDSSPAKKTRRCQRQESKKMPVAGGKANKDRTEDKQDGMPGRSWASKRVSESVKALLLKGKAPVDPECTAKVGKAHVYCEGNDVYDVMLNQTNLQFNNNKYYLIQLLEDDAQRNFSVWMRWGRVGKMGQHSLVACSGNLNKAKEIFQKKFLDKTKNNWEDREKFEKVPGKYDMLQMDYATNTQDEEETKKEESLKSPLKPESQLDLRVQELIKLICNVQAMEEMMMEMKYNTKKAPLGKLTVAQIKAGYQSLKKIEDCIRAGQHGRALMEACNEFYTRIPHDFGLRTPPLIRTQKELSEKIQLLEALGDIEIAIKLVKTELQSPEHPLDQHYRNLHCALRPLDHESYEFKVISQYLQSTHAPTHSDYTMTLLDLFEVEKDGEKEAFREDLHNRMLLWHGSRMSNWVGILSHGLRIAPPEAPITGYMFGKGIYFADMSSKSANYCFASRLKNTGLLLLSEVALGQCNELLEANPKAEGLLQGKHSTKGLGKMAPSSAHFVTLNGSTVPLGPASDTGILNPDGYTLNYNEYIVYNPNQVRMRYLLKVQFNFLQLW
Chain of Recombinant full length PARP1 (P09874 whole entry): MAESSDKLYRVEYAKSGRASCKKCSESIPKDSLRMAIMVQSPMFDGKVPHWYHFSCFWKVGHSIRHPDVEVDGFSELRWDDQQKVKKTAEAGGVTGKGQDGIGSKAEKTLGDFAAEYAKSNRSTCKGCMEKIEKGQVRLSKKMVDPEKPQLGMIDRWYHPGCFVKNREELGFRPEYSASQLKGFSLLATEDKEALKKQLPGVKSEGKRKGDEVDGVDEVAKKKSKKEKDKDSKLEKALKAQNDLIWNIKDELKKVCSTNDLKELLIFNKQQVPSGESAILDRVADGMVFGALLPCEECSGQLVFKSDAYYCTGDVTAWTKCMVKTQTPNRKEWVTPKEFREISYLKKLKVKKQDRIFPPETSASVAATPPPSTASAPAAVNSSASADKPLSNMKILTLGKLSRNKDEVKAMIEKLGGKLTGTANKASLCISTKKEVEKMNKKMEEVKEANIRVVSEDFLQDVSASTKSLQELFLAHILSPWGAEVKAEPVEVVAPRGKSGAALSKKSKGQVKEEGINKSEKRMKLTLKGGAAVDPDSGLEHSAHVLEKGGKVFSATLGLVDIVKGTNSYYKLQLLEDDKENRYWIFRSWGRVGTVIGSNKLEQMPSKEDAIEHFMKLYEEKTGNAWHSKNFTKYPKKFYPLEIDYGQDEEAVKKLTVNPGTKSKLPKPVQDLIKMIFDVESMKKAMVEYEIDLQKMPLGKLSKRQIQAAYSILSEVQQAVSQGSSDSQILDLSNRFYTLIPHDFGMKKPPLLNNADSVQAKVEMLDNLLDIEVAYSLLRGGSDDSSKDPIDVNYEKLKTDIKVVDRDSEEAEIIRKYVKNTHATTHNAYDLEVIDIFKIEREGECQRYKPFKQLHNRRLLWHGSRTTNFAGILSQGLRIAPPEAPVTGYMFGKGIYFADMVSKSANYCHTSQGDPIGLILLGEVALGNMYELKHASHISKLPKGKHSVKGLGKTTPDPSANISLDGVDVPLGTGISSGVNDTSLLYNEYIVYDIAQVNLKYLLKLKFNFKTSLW

`CNC(=O)c1ccc(OC2CCN(Cc3cnc4cc(C5CC5)c(=O)[nH]c4c3)C2)cn1` (centres unmarked) [Compound 14, 5-((1-((7-cyclopropyl-6-oxo-5,6-dihydro-1,5-naphthyridin-3-yl)methyl)pyrrolidin-3-yl)oxy)-N-methylpicolinamide]: the concentration for half-maximal inhibition (IC50) in data set [1] is 6.6 nM; with DLD1-BRCA2−/− cells (Homo sapiens, DLD-1, 168 h) it was 48.6 nM; in data set [2], more than 10000 nM.

Turning to `CCc1nc2ccc(C(C)N3CC(Oc4ccc(C(=O)NC)nc4F)C3)c(F)c2[nH]c1=O` (centres unmarked) [Compound 55, 5-((1-(1-(2-ethyl-5-fluoro-3-oxo-3,4-dihydroquinoxalin-6-yl)ethyl)azetidin-3-yl)oxy)-6-fluoro-N-methylpicolinamide], in data set [3], the efflux ratio at 120 min, 5 μM stood at 1.5; the Papp A→B at 120 min, 5 μM is 9.92 ×10⁻⁶ cm/s; the Papp B→A at 120 min, 5 μM is 14.8 ×10⁻⁶ cm/s. Also, the IC50 in data set [1] turned out to be 28.1 nM. This compound came in with an IC50 in the data set on DLD1-BRCA2−/− cells (Homo sapiens, DLD-1, 168 h) of 554 nM.

As to `CCc1cc2ncc(CN3CC(N(C)c4ccc(C(=O)NC)nc4)C3)cc2[nH]c1=O` [Compound 3, 5-((1-((7-ethyl-6-oxo-5,6-dihydro-1,5-naphthyridin-3-yl)methyl)azetidin-3-yl)(methyl)amino)-N-methylpicolinamide], the half-maximal inhibitory concentration (IC50) was 4.3 nM in data set [1]; 221 nM with DLD1-BRCA2−/− cells (Homo sapiens, DLD-1, 168 h); more than 10000 nM in data set [2].

For `CCc1nc2ccc(C(C)N3CC(Oc4ccc(-n5ccnn5)nc4)C3)cc2[nH]c1=O` (centres unmarked) [Compound 54, 7-(1-(3-((6-(1H-1,2,3-triazol-1-yl)pyridin-3-yl)oxy)azetidin-1-yl)ethyl)-3-ethylquinoxalin-2(1H)-one], the IC50 in data set [1] amounted to 2.12 nM; in the data set with DLD1-BRCA2−/− cells (Homo sapiens, DLD-1, 168 h) it was 38.5 nM.

For `CCc1cc2ncc(CN3CC(Oc4ccc(C(=O)NC)nc4C)C3)cc2[nH]c1=O` [Compound 44, 5-((1-((7-ethyl-6-oxo-5,6-dihydro-1,5-naphthyridin-3-yl)methyl)azetidin-3-yl)oxy)-N,6-dimethylpicolinamide], the IC50 in data set [1] is 4.4 nM; in the data set with DLD1-BRCA2−/− cells (Homo sapiens, DLD-1, 168 h), more than 1000 nM; in data set [2] it was more than 10000 nM.

As to `CCc1cc2ncc(CN3CC[C@H](Oc4ccc(C(=O)NC)nc4)C3)cc2[nH]c1=O` [Compound 58, (S)-5-((1-((7-ethyl-6-oxo-5,6-dihydro-1,5-naphthyridin-3-yl)methyl)pyrrolidin-3-yl)oxy)-N-methylpicolinamide], the IC50 was 44.7 nM in data set [1]; more than 1000 nM in the data set on DLD1-BRCA2−/− cells (Homo sapiens, DLD-1, 168 h); more than 10000 nM in data set [2].

With `CCc1cc2ncc(C(C)N3CC(Oc4ccc(C(=O)NC)nc4C)C3)cc2[nH]c1=O` (centres unmarked) [Compound 19, 5-((1-(1-(7-ethyl-6-oxo-5,6-dihydro-1,5-naphthyridin-3-yl)ethyl)azetidin-3-yl)oxy)-N,6-dimethylpicolinamide], the IC50 in data set [1] was 6.1 nM; in the data set on DLD1-BRCA2−/− cells (Homo sapiens, DLD-1, 168 h), more than 1000 nM; in data set [2], more than 10000 nM.

As to `CCc1cc2ncc(CN3C[C@H](Oc4ccc(C(=O)NC)nc4)[C@@H](F)C3)cc2[nH]c1=O` [Compound 24, 5-(((3S,4S)-1-((7-ethyl-6-oxo-5,6-dihydro-1,5-naphthyridin-3-yl)methyl)-4-fluoropyrrolidin-3-yl)oxy)-N-methylpicolinamide], the IC50 in data set [1] was 7.3 nM; in the data set on DLD1-BRCA2−/− cells (Homo sapiens, DLD-1, 168 h), 542 nM; in data set [2] it was more than 10000 nM.

Take `CNC(=O)c1ccc(O[C@@H]2CCN(Cc3cnc4cc(C5CC5)c(=O)[nH]c4c3)C2)cn1` (single isomer, unassigned) [Compound 61, (enantiomer 1 or 2)-5-((1-((7-cyclopropyl-6-oxo-5,6-dihydro-1,5-naphthyridin-3-yl)methyl)pyrrolidin-3-yl)oxy)-N-methylpicolinamide]: the IC50 in data set [1] is 6.62 nM; in the data set with DLD1-BRCA2−/− cells, 40.7 nM; in data set [2], more than 10000 nM.

Regarding `CCc1cc2ncc(CN3CC[C@@H](Oc4ccc(C(=O)NC)nc4F)C3)cc2[nH]c1=O` [Compound 29, (R)-5-((1-((7-ethyl-6-oxo-5,6-dihydro-1,5-naphthyridin-3-yl)methyl)pyrrolidin-3-yl)oxy)-6-fluoro-N-methylpicolinamide], the half-inhibitory concentration (IC50) in data set [1] was 9.6 nM; in the data set on DLD1-BRCA2−/− cells (Homo sapiens, DLD-1, 168 h) it was 7.9 nM; in data set [2], more than 10000 nM.

For `CCc1cc2ncc(CN3CCC(Cc4ccc(C(=O)NC)nc4)C3)cc2[nH]c1=O` (centres unmarked) [Compound 7, 5-((1-((7-ethyl-6-oxo-5,6-dihydro-1,5-naphthyridin-3-yl)methyl)pyrrolidin-3-yl)methyl)-N-methylpicolinamide], the IC50 in data set [1] is 7.8 nM; with DLD1-BRCA2−/− cells (Homo sapiens, DLD-1, 168 h), 207 nM; in data set [2], 7040 nM.

For the compound `CCc1cc2ncc(CN3CC[C@@H](Oc4ccc(C(=O)NC)nc4C)C3)cc2[nH]c1=O` [Compound 30, (R)-5-((1-((7-ethyl-6-oxo-5,6-dihydro-1,5-naphthyridin-3-yl)methyl)pyrrolidin-3-yl)oxy)-N,6-dimethylpicolinamide], the IC50 in data set [1] is 4.4 nM; in the data set with DLD1-BRCA2−/− cells (Homo sapiens, DLD-1, 168 h) it was 256 nM; in data set [2], more than 10000 nM.

As to `CCc1cc2ncc(C(C)N3CC(Oc4ccc(C(=O)NC)nc4F)C3)cc2[nH]c1=O` (centres unmarked) [Compound 21, 5-((1-(1-(7-ethyl-6-oxo-5,6-dihydro-1,5-naphthyridin-3-yl)ethyl)azetidin-3-yl)oxy)-6-fluoro-N-methylpicolinamide], the concentration for half-maximal inhibition (IC50) was determined as 3.5 nM in data set [1]; 17.2 nM in the data set with DLD1-BRCA2−/− cells (Homo sapiens, DLD-1, 168 h); 4810 nM in data set [2].

Regarding `CNC(=O)c1ccc(O[C@@H]2CCN(Cc3cnc4cc(C5CC5)c(=O)[nH]c4c3)C2)cn1` (single isomer, unassigned) [Compound 60, (enantiomer 1 or 2)-5-((1-((7-cyclopropyl-6-oxo-5,6-dihydro-1,5-naphthyridin-3-yl)methyl)pyrrolidin-3-yl)oxy)-N-methylpicolinamide], the results for the IC50 (in data set [1]; in the data set with DLD1-BRCA2−/− cells; in data set [2]) were 64.3 nM, more than 1000 nM and more than 10000 nM, respectively.

Turning to `CCc1nc2ccc([C@H](C)N3CC(Oc4ccc(C(=O)NC)nc4F)C3)cc2[nH]c1=O` (single isomer, unassigned) [Compound 56, (enantiomer 1 or 2)-5-((1-(1-(2-ethyl-3-oxo-3,4-dihydroquinoxalin-6-yl)ethyl)azetidin-3-yl)oxy)-6-fluoro-N-methylpicolinamide], in data set [3], the efflux ratio at 120 min, 5 μM was 3.01; the Papp A→B at 120 min, 5 μM is 8.54 ×10⁻⁶ cm/s; the Papp B→A at 120 min, 5 μM was 25.8 ×10⁻⁶ cm/s. Also, the IC50 in data set [1] came to 11 nM. This compound gave an IC50 in the data set on DLD1-BRCA2−/− cells (Homo sapiens, DLD-1, 168 h) of 10.9 nM.

As to `CCc1cc2ncc(CN3CC[C@@H](N(C)c4ccc(C(=O)NC)nc4)C3)cc2[nH]c1=O` (single isomer, unassigned; enantiomer 2) [Compound 17, (enantiomer 2)-5-((1-((7-ethyl-6-oxo-5,6-dihydro-1,5-naphthyridin-3-yl)methyl)pyrrolidin-3-yl)(methyl)amino)-N-methylpicolinamide], in data set [3], the efflux ratio at 120 min, 5 μM worked out at 9.14; the Papp A→B at 120 min, 5 μM amounted to 3.64 ×10⁻⁶ cm/s; the Papp B→A at 120 min, 5 μM was 33.3 ×10⁻⁶ cm/s. Further, in the data set on DLD1-BRCA2−/− cells, the IC50 was found to be 195 nM.

With `CCc1cc2ncc(CN3CC4CN(c5ccc(C(=O)NC)nc5)CC4C3)cc2[nH]c1=O` (centres unmarked) [Compound 40, 5-(5-((7-ethyl-6-oxo-5,6-dihydro-1,5-naphthyridin-3-yl)methyl)hexahydropyrrolo [3,4-c]pyrrol-2(1H)-yl)-N-methylpicolinamide], in data set [3], the efflux ratio at 120 min, 5 μM is 8.32; the Papp A→B at 120 min, 5 μM is 4.29 ×10⁻⁶ cm/s; the Papp B→A at 120 min, 5 μM is 35.7 ×10⁻⁶ cm/s. Also, in the data set with DLD1-BRCA2−/− cells (Homo sapiens, DLD-1, 168 h), the IC50 was 181 nM.
